Like-named read-outs stand apart in the source and are kept apart here.
Target: T1, human nAChRα6-α3 chimera, in addition to β2 and β3^V273S subunits (Homo sapiens, UniProt P32297+Q15825)
T1 construct: expressed in transfected cells
Test: fluorescence-based calcium assay: inhibition of nicotine stimulated nAChRα6 activity (FLIPR)
Conditions: HEK cell line stably expressing the receptor, 10 min pre-incubation, nicotine EC80, 10-point curve, duplicate wells
Description: The ability of the test compounds to inhibit nicotine stimulated nAChRα6 activity was determined in a fluorescence-based calcium assay. Compound activity was determined using a HEK cell line stably expressing a human nAChRα6-α3 chimera, in addition to β2 and β3^V273S subunits (as in Capelli et al, Br J Pharmacol 163(2): 313-29 2011). In this cell line, nicotine stimulated an increase in intracellular calcium concentration, measured as an increase in fluorescence when cells were incubated with a calcium sensitive dye. Test compounds were pre-incubated with cells prior to nicotine stimulation to detect any reduction in the magnitude of the nicotine response.
The day prior to the assay, compounds were serially diluted in DMSO (200× final assay concentration (FAC)), in 384-well plates which were then stored in the dark at room temperature (RT) until use. Cells were seeded at 20 k/well in black, poly-D-lysine coated, clear bottom 384-well plates and incubated for 4 hours at 37° C., followed by overnight incubation at 30° C. The following day, the DMSO compound plate was diluted 1:20 (10×FAC) in assay buffer (HEPES buffered saline solution with 10 mM HEPES, 0.1% bovine serum albumin, 1 mM probenecid). A nicotine solution was prepared in assay buffer (7×FAC) and dispensed into a 384-well plate. The growth media was removed from the cell plate, replaced with 53 μl calcium dye/well (Calcium 5; Molecular Devices) and the plate incubated at 30° C. for 45 minutes. Test compounds were then added to the cells (7 μl of 10×FAC) and incubated for 10 minutes, after which nicotine EC80 (10 μl of 7×FAC) was added and changes in fluorescence measured using a FLIPR plate reader (Molecular Devices).
Compound activity was examined using a 10-point, half-log concentration-response range and each concentration was tested in duplicate wells.

T1 sequence (Q05901 25-458 V273S): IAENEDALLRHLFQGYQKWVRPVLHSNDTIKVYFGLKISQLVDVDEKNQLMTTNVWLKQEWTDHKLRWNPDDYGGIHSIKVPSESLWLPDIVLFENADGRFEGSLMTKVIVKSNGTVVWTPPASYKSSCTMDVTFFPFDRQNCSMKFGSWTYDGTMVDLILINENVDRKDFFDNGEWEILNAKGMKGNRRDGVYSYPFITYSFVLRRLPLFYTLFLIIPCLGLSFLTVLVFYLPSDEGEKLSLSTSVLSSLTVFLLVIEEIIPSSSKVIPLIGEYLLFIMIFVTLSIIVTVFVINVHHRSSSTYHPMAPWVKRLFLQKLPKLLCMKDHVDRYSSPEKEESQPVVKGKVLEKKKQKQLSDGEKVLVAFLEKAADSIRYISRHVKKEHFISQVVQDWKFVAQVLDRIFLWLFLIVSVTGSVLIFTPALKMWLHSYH
T1 sequence (P17787 26-502, stated change not applied, further chain): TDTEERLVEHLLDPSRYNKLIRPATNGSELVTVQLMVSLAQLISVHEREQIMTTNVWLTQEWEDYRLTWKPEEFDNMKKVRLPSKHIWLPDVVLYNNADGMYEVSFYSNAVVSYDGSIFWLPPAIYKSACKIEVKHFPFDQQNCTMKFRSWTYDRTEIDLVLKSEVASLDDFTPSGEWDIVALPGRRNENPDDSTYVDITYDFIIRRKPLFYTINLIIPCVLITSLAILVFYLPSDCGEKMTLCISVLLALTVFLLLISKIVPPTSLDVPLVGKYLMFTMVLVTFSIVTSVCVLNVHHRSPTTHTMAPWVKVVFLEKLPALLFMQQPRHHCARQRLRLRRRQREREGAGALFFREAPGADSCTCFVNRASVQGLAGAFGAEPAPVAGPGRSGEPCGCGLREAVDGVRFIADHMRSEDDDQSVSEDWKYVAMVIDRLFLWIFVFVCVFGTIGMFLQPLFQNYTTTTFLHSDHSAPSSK
T1 sequence (Q15825+P32297 fused with the stated changes): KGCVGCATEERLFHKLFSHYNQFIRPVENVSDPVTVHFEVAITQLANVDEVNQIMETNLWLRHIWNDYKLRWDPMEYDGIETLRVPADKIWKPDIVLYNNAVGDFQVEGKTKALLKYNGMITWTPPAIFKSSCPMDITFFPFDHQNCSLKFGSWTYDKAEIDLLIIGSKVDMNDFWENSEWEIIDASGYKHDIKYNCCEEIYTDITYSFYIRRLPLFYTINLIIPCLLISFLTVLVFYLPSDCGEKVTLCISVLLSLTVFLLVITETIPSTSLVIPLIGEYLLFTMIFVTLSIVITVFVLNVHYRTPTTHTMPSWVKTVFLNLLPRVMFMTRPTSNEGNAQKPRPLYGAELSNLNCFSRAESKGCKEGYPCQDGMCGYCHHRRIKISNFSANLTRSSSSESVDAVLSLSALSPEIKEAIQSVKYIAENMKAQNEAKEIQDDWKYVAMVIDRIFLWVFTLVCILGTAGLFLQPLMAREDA

Compound	IC50 (read-out: IC50)	IC50 (IC50 (μM))
CCN1CCCC1CNc1ncc(-c2ccc(F)cc2F)c(C)n1 (stereo not drawn) [Example 85, 5-(2,4-difluorophenyl)-N-((1-ethylpyrrolidin-2-yl)methyl)-4-methyl-pyrimidin-2-amine]	0.051 µM	
Cc1nc(NC[C@H]2CCCN2C)ncc1-c1ccc(C(F)(F)F)cc1F [Example 91a, (R)-5-(2-fluoro-4-(trifluoromethyl)phenyl)-4-methyl-N-((1-methylpyrrolidin-2-yl)methyl)pyrimidin-2-amine]	0.008 µM	
COc1ccc(-c2nnc(NCC3CCCN3C)nc2C)c(F)c1 (single isomer, unassigned) [Example 18a, 6-(2-fluoro-4-methoxyphenyl)-5-methyl-N-((1-methylpyrrolidin-2-yl)methyl)-1,2,4-triazin-3-amine]	0.331 µM	
Cc1nc(NC[C@]2(C)CCCN2C)ncc1-c1ccc(C(F)(F)F)cc1F [Example 136, (S)—N-((1,2-dimethylpyrrolidin-2-yl)methyl)-5-(2-fluoro-4-(trifluoromethyl)phenyl)-4-methyl-pyrimidin-2-amine]		0.096 µM
Cc1nc(NCC2CCC(C)N2C)ncc1-c1ccc(C(F)(F)F)cc1F (single isomer, unassigned) [Example 138d, N-(((2*S,5*R)-1,5-dimethylpyrrolidin-2-yl)methyl)-5-(2-fluoro-4-(trifluoromethyl)phenyl)-4-methyl-pyrimidin-2-amine]	0.025 µM	
Cc1nc(NC[C@H]2CCCN2C)ncc1-c1ccc(OC(F)(F)F)cc1F [Example 93a, (R)-5-(2-fluoro-4-(trifluoromethoxy)phenyl)-4-methyl-N-((1-methylpyrrolidin-2-yl)methyl)pyrimidin-2-amine]	0.05 µM	
Cc1nc(NCC2CCN(C)CC2)ncc1-c1ccc(C(F)(F)F)cc1F [Example 101, 5-(2-fluoro-4-(trifluoromethyl)phenyl)-4-methyl-N-((1-methyl-4-piperidinyl)methyl)pyrimidin-2-amine]	0.109 µM	
Cc1nc(NCC[C@H]2CCCN2C)ncc1-c1ccc(C(F)(F)F)cc1F [Example 106a, (R)-5-(2-fluoro-4-(trifluoromethyl)phenyl)-4-methyl-N-(2-(1-methylpyrrolidin-2-yl)ethyl)pyrimidin-2-amine]	0.105 µM	
CCN1CCCC1CNc1ncc(-c2ccc(C(F)(F)F)cc2F)c(C)n1 (stereo not drawn) [Example 98, N-((1-ethylpyrrolidin-2-yl)methyl)-5-(2-fluoro-4-(trifluoromethyl)phenyl)-4-methyl-pyrimidin-2-amine]	0.067 µM	
Cc1nc(NCCC2CCCN2C)nnc1-c1ccc(F)cc1F (stereo not drawn) [Example 21, 6-(2,4-difluorophenyl)-5-methyl-N-(2-(1-methylpyrrolidin-2-yl)ethyl)-1,2,4-triazin-3-amine]	0.599 µM	
[2H]C([2H])([2H])N1CCC[C@@H]1CNc1ncc(-c2ccc(F)cc2F)c(C)n1 [Example 90b, (R)-5-(2,4-difluorophenyl)-4-methyl-N-((1-(trideuteriomethyl)pyrrolidin-2-yl)methyl)pyrimidin-2-amine]	0.186 µM	
Cc1nc(NC(C)[C@H]2CCCN2C)ncc1-c1ccc(C(F)(F)F)cc1F (single isomer, unassigned) [Example 131a, 5-(2-fluoro-4-(trifluoromethyl)phenyl)-4-methyl-N-((1*R)-1-((2R)-1-methylpyrrolidin-2-yl)ethyl)pyrimidin-2-amine]	0.172 µM	
COc1ccc(-c2cnc(NC3CCCC(OC)C3)nc2C)c(F)c1 (single isomer, unassigned) [Example 53b, 5-(2-fluoro-4-methoxyphenyl)-N-(3-methoxycyclohexyl)-4-methyl-pyrimidin-2-amine]	0.734 µM	
COc1ccc(-c2cnc(NCC3COCCN3C)nc2C)c(F)c1 (stereo not drawn) [Example 32, 5-(2-fluoro-4-methoxyphenyl)-4-methyl-N-((4-methylmorpholin-3-yl)methyl)pyrimidin-2-amine]	0.099 µM	
CN1CCCC1CNc1ncc(-c2ccc(F)cc2F)c(C#N)n1 (stereo not drawn) [Example 19, 5-(2,4-difluorophenyl)-2-(((1-methylpyrrolidin-2-yl)methyl)amino) pyrimidine-4-carbonitrile]	0.216 µM	
COc1ccc(-c2cnc(NCC3CCCN3C)nc2C)c(F)c1 (single isomer, unassigned) [Example 28b, 5-(2-fluoro-4-methoxyphenyl)-4-methyl-N-((1-methylpyrrolidin-2-yl)methyl)pyrimidin-2-amine]	0.01 µM	
CN(C)C1CCCC(Nc2ncc(-c3ccc(F)cc3F)c(C#N)n2)C1 (single isomer, unassigned) [Example 59a, 5-(2,4-difluorophenyl)-2-((3-(dimethylamino)cyclohexyl)amino) pyrimidine-4-carbonitrile]	0.202 µM	

Compound	IC50 (read-out: IC50)	IC50 (IC50 (μM))
COc1ccc(F)c(-c2cnc(NCC3COCCN3C)nc2C)c1 (stereo not drawn) [Example 61, 5-(2-fluoro-5-methoxyphenyl)-4-methyl-N-((4-methylmorpholin-3-yl)methyl)pyrimidin-2-amine]	0.533 µM	
COc1ccc(-c2cnc(NC3CCCC(OC)C3)nc2C)c(F)c1 (single isomer, unassigned) [Example 53a, 5-(2-fluoro-4-methoxyphenyl)-N-(3-methoxycyclohexyl)-4-methyl-pyrimidin-2-amine]	1.24 µM	
Cc1nc(NC2CCCC(N(C)C)C2)ncc1-c1ccc(F)cc1F (single isomer, unassigned) [Example 55b, N^1-(5-(2,4-difluorophenyl)-4-methyl-pyrimidin-2-yl)-N^3,N^3-dimethylcyclohexane-1,3-diamine]	0.081 µM	
COc1ccc(-c2cnc(NC3CCN(C)CC3)nc2C)c(F)c1 [Example 40, 5-(2-fluoro-4-methoxyphenyl)-4-methyl-N-(1-methylpiperidin-4-yl) pyrimidin-2-amine]	0.068 µM	
COc1ccc(-c2cnc(NC3CCC(N(C)C)C3)nc2C(F)(F)F)c(F)c1 (stereo not drawn) [Example 43, N^1-(5-(2-fluoro-4-methoxyphenyl)-4-(trifluoromethyl)pyrimidin-2-yl)-N^3,N^3-dimethylcyclopentane-1,3-diamine]	0.178 µM	
Cc1nc(NCc2cccnc2)ncc1-c1ccc(F)cc1F [Example 42, 5-(2,4-difluorophenyl)-4-methyl-N-(pyridin-3-ylmethyl)pyrimidin-2-amine]	1.2 µM	
Cc1nc(NCC2CCC(C)N2C)ncc1-c1ccc(C(F)(F)F)cc1F (single isomer, unassigned) [Example 138b, N-(((2*S,5*S)-1,5-dimethylpyrrolidin-2-yl)methyl)-5-(2-fluoro-4-(trifluoromethyl)phenyl)-4-methyl-pyrimidin-2-amine]	0.085 µM	
Cc1nc(NCC2N(C)CCC2(F)F)ncc1-c1ccc(F)cc1F (single isomer, unassigned) [Example 84b, N-((3,3-difluoro-1-methylpyrrolidin-2-yl)methyl)-5-(2,4-difluorophenyl)-4-methyl-pyrimidin-2-amine]	1.65 µM	
Cc1nc(NC2CCN3CCCC23)ncc1-c1ccc(F)cc1F (single isomer, unassigned) [Example 86b, N-(5-(2,4-difluorophenyl)-4-methyl-pyrimidin-2-yl)hexahydro-1H-pyrrolizin-1-amine]	0.126 µM	
Cc1nc(N[C@H]2CCCNC2)ncc1-c1ccc(C(F)(F)F)cc1F [Example 116, (S)-5-(2-fluoro-4-(trifluoromethyl)phenyl)-4-methyl-N-(3-piperidinyl) pyrimidin-2-amine]		0.127 µM
COc1ccc(-c2cnc(NCC3CCCCN3C)nc2C)c(F)c1 (stereo not drawn) [Example 17, 5-(2-fluoro-4-methoxyphenyl)-4-methyl-N-((1-methylpiperidin-2-yl)methyl) pyrimidin-2-amine]	0.02 µM	
COc1ccc(-c2cnc(NC3CCN(C(C)C)CC3)nc2C#N)c(F)c1 [Example 81, 5-(2-fluoro-4-methoxyphenyl)-2-((1-isopropylpiperidin-4-yl)amino) pyrimidine-4-carbonitrile]	0.098 µM	
Cc1nc(NCC2(N(C)C)CCCC2)ncc1-c1ccc(F)cc1F [Example 11, 5-(2,4-difluorophenyl)-N-((1-(dimethylamino)cyclopentyl)methyl)-4-methyl-pyrimidin-2-amine]	0.246 µM	
COc1ccc(-c2cnc(NCC3CN(C)CCO3)nc2C)c(F)c1 (stereo not drawn) [Example 36, 5-(2-fluoro-4-methoxyphenyl)-4-methyl-N-((4-methylmorpholin-2-yl)methyl)pyrimidin-2-amine]	0.14 µM	
[2H]C([2H])([2H])N1CCC[C@H]1CNc1ncc(-c2ccc(F)cc2F)c(C)n1 [Example 90a, (S)-5-(2,4-difluorophenyl)-4-methyl-N-((1-(trideuteriomethyl)pyrrolidin-2-yl)methyl)pyrimidin-2-amine]	0.211 µM	
Cc1nc(NC[C@@H]2CCCN2C)ncc1-c1ccc(OC(F)(F)F)cc1F [Example 93b, (S)-5-(2-fluoro-4-(trifluoromethoxy)phenyl)-4-methyl-N-((1-methylpyrrolidin-2-yl)methyl)pyrimidin-2-amine]	0.011 µM	
